Drawing on BindingDB's records for PubMed 35144038 (Shaoxing University, 2022), this text covers IC50 for one compound.

This experiment deals with High affinity cGMP-specific 3',5'-cyclic phosphodiesterase 9A (Homo sapiens, UniProt O76083). Description: Inhibition of recombinant human PDE9A1 by radiometric assay.

Each structure is given as a SMILES string.

High affinity cGMP-specific 3',5'-cyclic phosphodiesterase 9A, sequence (O76083 whole entry): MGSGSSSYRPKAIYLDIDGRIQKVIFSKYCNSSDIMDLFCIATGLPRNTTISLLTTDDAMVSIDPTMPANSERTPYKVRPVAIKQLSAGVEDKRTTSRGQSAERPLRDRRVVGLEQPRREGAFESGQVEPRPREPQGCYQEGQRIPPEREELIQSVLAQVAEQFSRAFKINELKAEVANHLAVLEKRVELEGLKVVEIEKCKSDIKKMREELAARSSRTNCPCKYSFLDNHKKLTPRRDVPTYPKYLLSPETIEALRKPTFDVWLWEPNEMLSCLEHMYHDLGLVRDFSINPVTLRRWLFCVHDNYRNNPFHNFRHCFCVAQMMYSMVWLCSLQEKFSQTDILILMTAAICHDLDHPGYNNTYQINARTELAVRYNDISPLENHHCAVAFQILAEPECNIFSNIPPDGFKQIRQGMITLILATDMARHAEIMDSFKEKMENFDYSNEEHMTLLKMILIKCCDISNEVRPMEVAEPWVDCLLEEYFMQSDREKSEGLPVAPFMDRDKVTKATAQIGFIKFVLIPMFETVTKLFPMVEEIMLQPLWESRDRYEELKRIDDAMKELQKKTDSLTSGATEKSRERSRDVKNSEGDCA

Consider `C[C@@H]1CN(Cc2ncccn2)C[C@H]1c1cn2c(C3CCOCC3)ncc2c(=O)[nH]1` [US10513524, Compound (P3], for which the IC50 was determined as 8.2 nM.
